Source: patent US8563542B2 (Cyclacel Limited, priority 2007, dated 2013)

biological target: PLK1 (Homo sapiens, UniProt P53350); assay: PLK1 protein kinase assay (CDC25C phosphorylation, [γ-32P]-ATP); format: biochemical; conditions: Table 2, PLK1 IC50; class symbols; read-out: PLK1 IC50
Sequence (P53350 whole entry): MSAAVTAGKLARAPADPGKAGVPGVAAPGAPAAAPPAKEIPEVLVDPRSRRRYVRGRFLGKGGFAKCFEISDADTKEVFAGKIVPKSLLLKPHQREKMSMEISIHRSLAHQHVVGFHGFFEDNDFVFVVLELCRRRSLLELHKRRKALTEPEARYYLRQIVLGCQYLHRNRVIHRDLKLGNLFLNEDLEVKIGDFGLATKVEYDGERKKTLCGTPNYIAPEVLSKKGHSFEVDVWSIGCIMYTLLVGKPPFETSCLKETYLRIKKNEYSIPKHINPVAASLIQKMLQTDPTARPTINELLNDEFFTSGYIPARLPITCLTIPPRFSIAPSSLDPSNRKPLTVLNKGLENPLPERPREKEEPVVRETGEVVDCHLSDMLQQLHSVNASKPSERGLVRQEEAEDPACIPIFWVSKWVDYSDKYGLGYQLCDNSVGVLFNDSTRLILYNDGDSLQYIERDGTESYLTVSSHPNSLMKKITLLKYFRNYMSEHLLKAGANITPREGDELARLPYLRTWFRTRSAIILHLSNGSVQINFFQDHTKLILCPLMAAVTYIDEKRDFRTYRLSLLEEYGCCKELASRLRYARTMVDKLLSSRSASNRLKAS

Compound	IC50 [µM]
COc1ccc(C(=O)NC2CCN(C)CC2)cc1Nc1ncc2c(n1)N(C1CCCC1)CCC(=O)N2C [compound 143, 3-(9-Cyclopentyl-5-methyl-6-oxo-6,7,8,9-tetrahydro-5H-pyrimido[4,5-b][1,4]diazepin-2-ylamino)-4-methoxy-N-(1-methyl-piperidin-4-yl)-benzamide]	< 1
CNC(=O)c1ccc(OC)c(Nc2ncc3c(n2)N(C2CCCC2)CCC(=O)N3C)c1 [compound 144, 3-(9-Cyclopentyl-5-methyl-6-oxo-6,7,8,9-tetrahydro-5H-pyrimido[4,5-b][1,4]diazepin-2-ylamino)-4-methoxy-N-methyl-benzamide]	< 1
COc1ccc(C(=O)NCCO)cc1Nc1ncc2c(n1)N(C1CCCC1)CCC(=O)N2C [compound 145, 3-(9-Cyclopentyl-5-methyl-6-oxo-6,7,8,9-tetrahydro-5H-pyrimido[4,5-b][1,4]diazepin-2-ylamino)-N-(2-hydroxy-ethyl)-4-methoxy-benzamide]	< 1
COc1cc(C(=O)N(C)CCCN(C)C)ccc1Nc1ncc2c(n1)N(C1CCCC1)CCC(=O)N2C [compound 147, 4-(9-Cyclopentyl-5-methyl-6-oxo-6,7,8,9-tetrahydro-5H-pyrimido[4,5-b][1,4]diazepin-2-ylamino)-N-(3-dimethylamino-propyl)-3-methoxy-N-methyl-benzamide]	< 1
CCN(CC)CCNC(=O)c1ccc(Nc2ncc3c(n2)N(C2CCCC2)CCC(=O)N3C)c(OC)c1 [compound 148, 4-(9-Cyclopentyl-5-methyl-6-oxo-6,7,8,9-tetrahydro-5H-pyrimido[4,5-b][1,4]diazepin-2-ylamino)-N-(2-diethylamino-ethyl)-3-methoxy-benzamide]	< 0.1
COc1cc(C(=O)NCCCN(C)C)ccc1Nc1ncc2c(n1)N(C1CCCC1)CCC(=O)N2C [compound 149, 4-(9-Cyclopentyl-5-methyl-6-oxo-6,7,8,9-tetrahydro-5H-pyrimido[4,5-b][1,4]diazepin-2-ylamino)-N-(3-dimethylamino-propyl)-3-methoxy-benzamide]	< 1
COc1cc(C(=O)N[C@H]2c3ccccc3C[C@H]2O)ccc1Nc1ncc2c(n1)N(C1CCCC1)CCC(=O)N2C [compound 150, 4-(9-Cyclopentyl-5-methyl-6-oxo-6,7,8,9-tetrahydro-5H-pyrimido[4,5-b][1,4]diazepin-2-ylamino)-N-((1S,2R)-2-hydroxy-indan-1-yl)-3-methoxy-benzamide]	< 1
COc1cc(C(=O)N[C@@H](CO)C(C)C)ccc1Nc1ncc2c(n1)N(C1CCCC1)CCC(=O)N2C [compound 152, 4-(9-Cyclopentyl-5-methyl-6-oxo-6,7,8,9-tetrahydro-5H-pyrimido[4,5-b][1,4]diazepin-2-ylamino)-N-((R)-1-hydroxymethyl-2-methyl-propyl)-3-methoxy-benzamide]	< 1
CCC(CO)NC(=O)c1ccc(Nc2ncc3c(n2)N(C2CCCC2)CCC(=O)N3C)c(OC)c1 (centres unmarked) [compound 153, 4-(9-Cyclopentyl-5-methyl-6-oxo-6,7,8,9-tetrahydro-5H-pyrimido[4,5-b][1,4]diazepin-2-ylamino)-N-(1-hydroxymethyl-propyl)-3-methoxy-benzamide]	< 1
COc1cc(C(=O)NCC(C)O)ccc1Nc1ncc2c(n1)N(C1CCCC1)CCC(=O)N2C (centres unmarked) [compound 154, 4-(9-Cyclopentyl-5-methyl-6-oxo-6,7,8,9-tetrahydro-5H-pyrimido[4,5-b][1,4]diazepin-2-ylamino)-N-(2-hydroxy-propyl)-3-methoxy-benzamide]	< 1
COc1cc(C(=O)NC(C)(C)CN2CCCC2)ccc1Nc1ncc2c(n1)N(C1CCCC1)CCC(=O)N2C [compound 155, 4-(9-Cyclopentyl-5-methyl-6-oxo-6,7,8,9-tetrahydro-5H-pyrimido[4,5-b][1,4]diazepin-2-ylamino)-N-(1,1-dimethyl-2-pyrrolidin-1-yl-ethyl)-3-methoxy-benzamide]	< 1
COc1cc(C(=O)NC(C)(C)CN2CCCCC2)ccc1Nc1ncc2c(n1)N(C1CCCC1)CCC(=O)N2C [compound 156, 4-(9-Cyclopentyl-5-methyl-6-oxo-6,7,8,9-tetrahydro-5H-pyrimido[4,5-b][1,4]diazepin-2-ylamino)-N-(1,1-dimethyl-2-piperidin-1-yl-ethyl)-3-methoxy-benzamide]	< 0.1
COc1cc(C(=O)NC2CCN(Cc3ccccc3)CC2)ccc1Nc1ncc2c(n1)N(C1CCCC1)CCC(=O)N2C [compound 157, N-(1-Benzyl-piperidin-4-yl)-4-(9-cyclopentyl-5-methyl-6-oxo-6,7,8,9-tetrahydro-5H-pyrimido[4,5-b][1,4]diazepin-2-ylamino)-3-methoxy-benzamide]	< 0.1
COc1cc(C(=O)NCC2CCN(C)CC2)ccc1Nc1ncc2c(n1)N(C1CCCC1)CCC(=O)N2C [compound 158, 4-(9-Cyclopentyl-5-methyl-6-oxo-6,7,8,9-tetrahydro-5H-pyrimido[4,5-b][1,4]diazepin-2-ylamino)-3-methoxy-N-(1-methyl-piperidin-4-ylmethyl)-benzamide]	< 0.1
COc1cc(C(=O)NCCCO)ccc1Nc1ncc2c(n1)N(C1CCCC1)CCC(=O)N2C [compound 159, 4-(9-Cyclopentyl-5-methyl-6-oxo-6,7,8,9-tetrahydro-5H-pyrimido[4,5-b][1,4]diazepin-2-ylamino)-N-(3-hydroxy-propyl)-3-methoxy-benzamide]	< 1
COc1cc(C(=O)NN2CCN(C)CC2)ccc1Nc1ncc2c(n1)N(C1CCCC1)CCC(=O)N2C [compound 160, 4-(9-Cyclopentyl-5-methyl-6-oxo-6,7,8,9-tetrahydro-5H-pyrimido[4,5-b][1,4]diazepin-2-ylamino)-3-methoxy-N-(4-methyl-piperazin-1-yl)-benzamide]	< 0.1
COc1cc(C(=O)NC2CN3CCC2CC3)ccc1Nc1ncc2c(n1)N(C1CCCC1)CCC(=O)N2C (centres unmarked) [compound 161, N-(1-Aza-bicyclo[2.2.2]oct-3-yl)-4-(9-cyclopentyl-5-methyl-6-oxo-6,7,8,9-tetrahydro-5H-pyrimido[4,5-b][1,4]diazepin-2-ylamino)-3-methoxy-benzamide]	< 0.1
COc1cc(C(=O)NC2CC(C)(C)N(C)C(C)(C)C2)ccc1Nc1ncc2c(n1)N(C1CCCC1)CCC(=O)N2C [compound 162, 4-(9-Cyclopentyl-5-methyl-6-oxo-6,7,8,9-tetrahydro-5H-pyrimido[4,5-b][1,4]diazepin-2-ylamino)-3-methoxy-N-(1,2,2,6,6-pentamethyl-piperidin-4-yl)-benzamide]	< 0.1
COc1cc(C(=O)NC2CCCN(C)C2)ccc1Nc1ncc2c(n1)N(C1CCCC1)CCC(=O)N2C (centres unmarked) [compound 163, 4-(9-Cyclopentyl-5-methyl-6-oxo-6,7,8,9-tetrahydro-5H-pyrimido[4,5-b][1,4]diazepin-2-ylamino)-3-methoxy-N-(1-methyl-piperidin-3-yl)-benzamide]	< 0.1
CCC(O)CNC(=O)c1ccc(Nc2ncc3c(n2)N(C2CCCC2)CCC(=O)N3C)c(OC)c1 (centres unmarked) [compound 164, 4-(9-Cyclopentyl-5-methyl-6-oxo-6,7,8,9-tetrahydro-5H-pyrimido[4,5-b][1,4]diazepin-2-ylamino)-N-(2-hydroxy-butyl)-3-methoxy-benzamide]	< 1
COc1cc(C(=O)NCC(C)(C)CN(C)C)ccc1Nc1ncc2c(n1)N(C1CCCC1)CCC(=O)N2C [compound 165, 4-(9-Cyclopentyl-5-methyl-6-oxo-6,7,8,9-tetrahydro-5H-pyrimido[4,5-b][1,4]diazepin-2-ylamino)-N-(3-dimethylamino-2,2-dimethyl-propyl)-3-methoxy-benzamide]	< 0.1
COc1cc(C(=O)NCCO)ccc1Nc1ncc2c(n1)N(C1CCCC1)CCC(=O)N2C [compound 166, 4-(9-Cyclopentyl-5-methyl-6-oxo-6,7,8,9-tetrahydro-5H-pyrimido[4,5-b][1,4]diazepin-2-ylamino)-N-(2-hydroxy-ethyl)-3-methoxy-benzamide]	< 1
COc1cc(C(=O)N(CCO)CCO)ccc1Nc1ncc2c(n1)N(C1CCCC1)CCC(=O)N2C [compound 167, 4-(9-Cyclopentyl-5-methyl-6-oxo-6,7,8,9-tetrahydro-5H-pyrimido[4,5-b][1,4]diazepin-2-ylamino)-N,N-bis-(2-hydroxy-ethyl)-3-methoxy-benzamide]	< 10
COc1cc(C(=O)NCCOCCO)ccc1Nc1ncc2c(n1)N(C1CCCC1)CCC(=O)N2C [compound 168, 4-(9-Cyclopentyl-5-methyl-6-oxo-6,7,8,9-tetrahydro-5H-pyrimido[4,5-b][1,4]diazepin-2-ylamino)-N-[2-(2-hydroxy-ethoxy)-ethyl]-3-methoxy-benzamide]	< 1
CONC(=O)c1ccc(Nc2ncc3c(n2)N(C2CCCC2)CCC(=O)N3C)c(OC)c1 [compound 169, 4-(9-Cyclopentyl-5-methyl-6-oxo-6,7,8,9-tetrahydro-5H-pyrimido[4,5-b][1,4]diazepin-2-ylamino)-3,N-dimethoxy-benzamide]	< 1
CCN(CC)CCNC(=O)c1ccc(Nc2ncc3c(n2)N(C2CCCC2)CC2(CC2)C(=O)N3C)c(OC)c1 [compound 182, 4-(9-Cyclopentyl-5-methyl-6-oxo-6,7,8,9-tetrahydro-5H-spiro[pyrimido[4,5-b][1,4]diazepin-3,1′-cyclopropane]-2-ylamino)-N-(2-diethylamino-ethyl)-3-methoxy-benzamide]	< 0.1
COc1cc(C(=O)NCCCN(C)C)ccc1Nc1ncc2c(n1)N(C1CCCC1)CC1(CC1)C(=O)N2C [compound 183]	< 0.1
COc1cc(C(=O)NCCCCO)ccc1Nc1ncc2c(n1)N(C1CCCC1)CC1(CC1)C(=O)N2C [compound 185, 4-(9-Cyclopentyl-5-methyl-6-oxo-6,7,8,9-tetrahydro-5H-spiro[pyrimido[4,5-b][1,4]diazepin-3,1′-cyclopropane]-2-ylamino)- -N-(4-hydroxy-butyl)-3-methoxy-benzamide]	< 0.1
COc1cc(C(=O)NC2CCCN(C)C2)ccc1Nc1ncc2c(n1)N(C1CCCC1)CC1(CC1)C(=O)N2C (centres unmarked) [compound 187, 4-(9-Cyclopentyl-5-methyl-6-oxo-6,7,8,9-tetrahydro-5H-spiro[pyrimido[4,5-b][1,4]diazepin-3,1-cyclopropane]-2-ylamino)-3-methoxy-N-(1-methyl-piperidin-3-yl)-benzamide]	< 0.1
